The results in this text go back to ChEMBL document CHEMBL1137853, “Discovery of potent and selective beta-homophenylalanine based dipeptidyl peptidase IV inhibitors” (Bioorg Med Chem Lett, 2004).

Molecules are shown by their SMILES. Bounds are passed on as bounds.

One data set has as its target Dipeptidyl peptidase 4 (Homo sapiens, UniProt P27487). In words: Inhibitory concentration against Dipeptidyl peptidase IV.
In another data set the target is Dipeptidyl peptidase 2 (Homo sapiens, UniProt Q9UHL4). Put plainly: Inhibitory concentration against quiescent cell proline dipeptidase.
Data set [1] in a line: Plasma clearance in rat at 1 mpk iv. In kind it is ADME, organism-based. Conditions: 1 mg/kg.
A short description of data set [2]: Plasma clearance in rat at 2 mpk po. It is filed as ADME, organism-based. Conditions: 2 mg/kg, read-out: Clearance.
Data set [3] can be described thus: Bioavailability in rat (dose 1 mg/kg i.v.). In kind it is ADME, organism-based. As to conditions: in vivo, iv.
Data set [4] can be described thus: Bioavailability in rat (dose 2 mg/kg p.o.). In kind it is ADME, organism-based. As to conditions: in vivo, po.
Data set [5] is described as follows: Half life in rat at 1 mpk iv. As to conditions: in vivo, 1 mg/kg. In kind it is ADME, organism-based.
Data set [6] can be described thus: Half life in rat at 2 mpk po. It is filed as ADME, organism-based. Conditions: in vivo, 2 mg/kg.

Dipeptidyl peptidase 4, sequence (P27487 whole entry): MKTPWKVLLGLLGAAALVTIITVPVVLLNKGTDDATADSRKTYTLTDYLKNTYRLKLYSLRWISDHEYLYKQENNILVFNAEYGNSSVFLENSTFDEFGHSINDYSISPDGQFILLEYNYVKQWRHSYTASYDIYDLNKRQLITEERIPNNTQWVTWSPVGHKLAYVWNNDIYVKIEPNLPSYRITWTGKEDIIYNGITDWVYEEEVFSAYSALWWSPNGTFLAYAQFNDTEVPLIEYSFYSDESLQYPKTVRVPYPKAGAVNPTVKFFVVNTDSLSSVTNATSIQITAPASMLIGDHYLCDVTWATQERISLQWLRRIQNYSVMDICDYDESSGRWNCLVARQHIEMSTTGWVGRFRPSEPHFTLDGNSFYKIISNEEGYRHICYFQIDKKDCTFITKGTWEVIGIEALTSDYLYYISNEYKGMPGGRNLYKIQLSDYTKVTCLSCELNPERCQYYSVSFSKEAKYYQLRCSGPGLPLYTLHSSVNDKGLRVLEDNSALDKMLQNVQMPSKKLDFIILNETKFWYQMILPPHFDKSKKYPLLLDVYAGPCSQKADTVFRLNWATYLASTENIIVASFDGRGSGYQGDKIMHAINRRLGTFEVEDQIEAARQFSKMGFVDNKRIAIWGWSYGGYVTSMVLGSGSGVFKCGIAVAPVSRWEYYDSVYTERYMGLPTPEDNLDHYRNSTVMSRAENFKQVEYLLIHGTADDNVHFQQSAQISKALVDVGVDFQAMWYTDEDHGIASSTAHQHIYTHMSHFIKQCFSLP

At Dipeptidyl peptidase 4, `N[C@@H](CC(=O)N1CCSC1)Cc1ccoc1` returned an IC50 of 46.9 µM.
Still for that read-out and setting: to `N[C@@H](CC(=O)N1CCSC1)CC1CCCC1` belongs 27.5 µM.
On to `N[C@@H](CC(=O)N1CCSC1)Cc1cccc(F)c1`, for which the IC50 on Dipeptidyl peptidase 4 was 2.03 µM; against Dipeptidyl peptidase 2, 48.5 µM.
For the compound `N[C@@H](CC(=O)N1CCSC1)Cc1ccsc1`, 5.7 µM corresponded to half-maximal inhibition at Dipeptidyl peptidase 4 (IC50).
Still for that read-out and setting: to `N[C@@H](CC(=O)N1CCSC1)Cc1ccncc1` belongs 51 µM; to `N[C@@H](CC(=O)N1CCSC1)Cc1ccc(C(F)(F)F)cc1`, 7.69 µM.
On Dipeptidyl peptidase 2, `N[C@@H](CC(=O)N1CCSC1)Cc1ccccc1` came in with an IC50 greater than 100 µM.
As for `N[C@@H](CC(=O)N1CCSC1)Cc1ccc(Cl)cc1`, the IC50 on Dipeptidyl peptidase 4 stood at 3.03 µM; on Dipeptidyl peptidase 2, 36.2 µM.
The matching figures for `N[C@@H](CC(=O)N1CCSC1)Cc1ccc(F)cc1F`: 0.589 µM and 56.1 µM.
Turning to `N[C@@H](CC(=O)N1CCSC1)Cc1ccc(Cl)c(Cl)c1`, the IC50 at Dipeptidyl peptidase 4 is 2.03 µM; on Dipeptidyl peptidase 2, 48.5 µM.
The matching figures for `N[C@@H](CC(=O)N1CCSC1)Cc1ccc([N+](=O)[O-])cc1`: 1.55 µM and 24.3 µM.
As to `N[C@@H](CC(=O)N1CCSC1)Cc1cccc(F)c1F`, on Dipeptidyl peptidase 4, the IC50 was determined as 9.4 µM.
For the compound `N[C@@H](CC(=O)N1CCSC1)Cc1ccc(F)c(F)c1`, the IC50 was determined as 1.7 µM at Dipeptidyl peptidase 4 and 33.9 µM against Dipeptidyl peptidase 2.
As to `N[C@@H](CC(=O)N1CCSC1)Cc1ccccn1`, the IC50 against Dipeptidyl peptidase 4 stood at 39.6 µM.
`N#Cc1ccccc1C[C@@H](N)CC(=O)N1CCSC1`: the values for the IC50 on Dipeptidyl peptidase 4 and against Dipeptidyl peptidase 2 were 2.52 µM and greater than 100 µM, respectively.
In turn, `N[C@@H](CC(=O)N1CCSC1)Cc1cccnc1` showed an IC50 against Dipeptidyl peptidase 4 of 44.9 µM.
Regarding `Cc1ccccc1C[C@@H](N)CC(=O)N1CCSC1`, the IC50 was determined as 0.981 µM against Dipeptidyl peptidase 4 and 92.1 µM at Dipeptidyl peptidase 2.
Take `N[C@@H](CC(=O)N1CCSC1)Cc1cccc(C(F)(F)F)c1`: the IC50 came out at 3.61 µM on Dipeptidyl peptidase 4 and 24.6 µM on Dipeptidyl peptidase 2.
Regarding `N[C@@H](CC(=O)N1CCSC1)Cc1ccccc1C(F)(F)F`, the results for the IC50 on Dipeptidyl peptidase 4 and against Dipeptidyl peptidase 2 were 2.26 µM and 82.1 µM, respectively.
In turn, `COc1cc(OC)cc(-c2nc(-c3ccc(Cl)cc3Cl)c(CN(C)C)c(N(C)C)n2)c1` registered an IC50 against Dipeptidyl peptidase 4 of 0.0001 µM.
For `N[C@@H](CC(=O)N1CCSC1)Cc1ccccc1F`, the values for the IC50 against Dipeptidyl peptidase 4 and at Dipeptidyl peptidase 2 were 0.931 µM and 49.7 µM, respectively.
Turning to `N[C@@H](CC(=O)N1CCSC1)Cc1c(F)cccc1F`, it took 8.48 µM to reach half-maximal inhibition on Dipeptidyl peptidase 4 (IC50).
Turning to `N[C@@H](CC(=O)N1CCSC1)CC1CCCCC1`, at Dipeptidyl peptidase 4, the IC50 amounted to 33 µM.
Consider `N[C@H](CCc1ccccc1)CC(=O)N1CCSC1`, for which it took 16.5 µM to reach half-maximal inhibition against Dipeptidyl peptidase 4 (IC50).
With `N[C@@H](CC(=O)N1CCSC1)Cc1cc(F)c(F)cc1F`, in data set [1], the clearance was found to be 120 mL/min/kg. Besides, the CL/F in data set [2] came out at 120 mL/min/kg. Further, the bioavailability in data set [3] and in data set [4] was 3% each time. The half-life in data set [5] and in data set [6] was 66 min each time.
With `N[C@@H](CC(=O)N1CCSC1)Cc1ccc(F)cc1`, the IC50 against Dipeptidyl peptidase 4 came out at 3.28 µM; on Dipeptidyl peptidase 2, 67.6 µM.
As for `N[C@@H](CC(=O)N1CCSC1)c1ccccc1`, the concentration for half-maximal inhibition (IC50) on Dipeptidyl peptidase 4 is greater than 100 µM.
The same measure, in the same setting: to `N#Cc1ccc(C[C@@H](N)CC(=O)N2CCSC2)cc1` belongs 14.9 µM.
For the compound `N[C@@H](CC(=O)N1CCSC1)Cc1ccc(I)cc1`, the IC50 against Dipeptidyl peptidase 4 was found to be 10.7 µM; against Dipeptidyl peptidase 2, 5.78 µM.
The like results for `N#Cc1cccc(C[C@@H](N)CC(=O)N2CCSC2)c1` were, in that order, 8.95 µM and 29.8 µM.
In the case of `N[C@@H](CC(=O)N1CCSC1)Cc1cc(F)ccc1F`, the IC50 came to 0.27 µM against Dipeptidyl peptidase 4 and 77.6 µM at Dipeptidyl peptidase 2. In data set [1], this compound returned a clearance of 110 mL/min/kg. Also, the CL/F in data set [2] is 110 mL/min/kg. Also, the bioavailability in data set [3] and in data set [4] was 2% each time. The half-life in data set [5] and in data set [6] was 30 min in each case.

The term IC50 denotes the concentration that inhibits the measured activity by half. Read a low IC50 as greater potency in that assay. The clearance is a measure of how efficiently the substance is removed, as volume per time. As a reminder, the bioavailability is dose-corrected exposure relative to a reference, in per cent. Low values mean little systemic uptake, high ones much systemic uptake. Broadly, the half-life is how long it takes for the measured level to halve.
